What all share (assay): NCI anticancer screen, dose series, 48 h
Assay [1] deals with SN12C renal.
Assay [2] relates to EKVX NSCLC.
Assay [3] deals with SW-620 colon.
For assay [4], the system named is U251 CNS.
Assay [5] deals with SK-MEL-28 melanoma.
Assay [6] relates to UO-31 renal.
The test system of assay [7] is M14 melanoma.
Assay [8] has as its system HT29 colon.
The subject of assay [9] is IGROV1 ovarian.
The test system of assay [10] is K-562 leukemia.

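1) Cells in 96-well plates. 2) Compound, 48 h, 5 concentrations. 3) Linear interpolation between surrounding doses. 4) Unreached endpoint = highest concentration. GI50 marks 50% less growth. TGI: concentration producing complete growth inhibition.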

For `C=C1CC[C@@H]2[C@](C)(COC(C)=O)[C@H](OC(C)=O)CC[C@@]2(C)[C@@H]1CC(Nc1ccc(S(=O)(=O)Nc2nccc(C)n2)cc1)C1=CCOC1=O` (stereo partly drawn), the GI50 in [1] was 2.64 µM; in assay [2] it was 13.9 µM; in [3] it was 1.6 µM; in [4], 3.17 µM; in assay [5] it was 2.83 µM; in assay [6], 2.91 µM. Further, the GI50 in assay [7] is 2.81 µM; in assay [8], 2.02 µM; in assay [9] it was 3.62 µM; in assay [10] it was 2.97 µM. Besides, the TGI in assay [1] turned out to be 6.17 µM; in assay [2], 27.1 µM; in assay [3], 3.68 µM; in [4], 10.7 µM; in assay [5], 10.1 µM; in assay [6] it was 10.6 µM. The TGI in assay [7] turned out to be 10.8 µM; in assay [8] it was 4.24 µM; in assay [9], 13.6 µM; in assay [10] it was 21.7 µM.

Take `Cc1nc2sc(C(=O)Nc3ccccc3)c(N)c2cc1C(=O)/C=C/c1ccccc1`: the GI50 was 2.02 µM in [1]; 2.26 µM in [2]; 1.74 µM in assay [3]; 1.71 µM in assay [4]; 1.54 µM in [6]; 1.76 µM in assay [7]. In addition, the results for the GI50 in [8], in assay [9] and in assay [10] were 1.77 µM, 1.99 µM and 2.41 µM, respectively. The TGI in assay [1] was found to be 4.45 µM; in assay [2] it was 6.48 µM; in [3] it was 4.49 µM; in assay [4], 3.16 µM; in assay [6] it was 2.89 µM; in [7] it was 4.49 µM. The TGI stood at 3.95 µM in assay [8], 4.73 µM in assay [9] and 17 µM in [10].

On to `Nc1cc(N)c(N)cc1N`, for which the GI50 in assay [1] is 1.6 µM; in assay [2] it was 2.7 µM; in assay [3] it was 3.09 µM; in assay [4] it was 1.82 µM; in [5], 2.03 µM; in [6], 1.56 µM. Moreover, the GI50 was 1.87 µM in [7], 2.42 µM in [8], 2.17 µM in [9] and 2.92 µM in assay [10]. For the same compound, the TGI in assay [1] was 3.08 µM; in assay [2], 8.02 µM; in assay [3], 12.1 µM; in assay [4], 3.75 µM; in assay [5], 3.88 µM; in assay [6] it was 4.6 µM. In addition, the TGI in assay [7] was 3.37 µM; in [8] it was 4.86 µM; in assay [9], 4.83 µM; in assay [10], more than 100 µM.

In the case of `O=NNc1nc(-c2cccnc2)nc2ccccc12`, the TGI is more than 100 µM in assay [1]; more than 100 µM in assay [2]; more than 100 µM in assay [3]; more than 100 µM in [4]; more than 100 µM in assay [5]; 32.8 µM in [6]. The TGI in [7], in assay [8], in [9] and in [10] was more than 100 µM throughout.

For the compound `N[C@H](C(=O)O)[C@H](Cl)CC(=O)O`, the TGI in assay [1], in [2], in [3], in [4], in assay [5] and in assay [6] was more than 100 µM each time. Also, the TGI in assay [7], in assay [8], in assay [9] and in [10] was more than 100 µM throughout.

Turning to `O=C(O)c1cc(=O)c2[nH]c3ccccc3c2s1`, the TGI in assay [1], in assay [2], in assay [3], in assay [5], in assay [6] and in assay [7] was more than 100 µM throughout. Moreover, the TGI in assay [9] and in [10] was more than 100 µM each time.

As to `Nc1nc2c(c(=O)[nH]1)CN(c1ccc(S(N)(=O)=O)cc1)CN2`, the TGI in assay [1], in assay [2], in [3], in assay [4], in assay [5] and in assay [6] was more than 100 µM throughout. In addition, the TGI in [7], in [8], in assay [9] and in assay [10] was more than 100 µM throughout.

`O=c1cc(-c2ccccc2)c2cc3c(=O)ccoc3cc2o1`: the TGI in assay [1], in assay [2], in assay [3], in assay [4], in [5] and in assay [6] was more than 100 µM throughout. Moreover, the TGI in [7], in assay [8] and in assay [10] was more than 100 µM each time.

With `CC(=O)OCC1OC(n2ccc(=O)[nH]c2=O)C(OC(C)=O)C1OC(C)=O` (stereo not drawn), the GI50 in [1], in assay [2], in assay [3], in [4], in [5] and in assay [6] was more than 100 µM throughout. For the same compound, the GI50 in [7], in [8] and in assay [9] was more than 100 µM throughout. The TGI in [1], in [2], in assay [3], in [4], in assay [5] and in [6] was more than 100 µM throughout. Further, the TGI in assay [7], in [8] and in [9] was more than 100 µM each time.

`CCc1cc(O)c(Cl)c(C)c1Cl`: the TGI in assay [1] was found to be 29.5 µM; in [2] it was 33.7 µM; in assay [3], 43.6 µM; in [4], 38.1 µM; in assay [5] it was 36.6 µM; in assay [6] it was 33.2 µM. For the same compound, the TGI came out at 63.6 µM in assay [7], 39.1 µM in [8] and 33.8 µM in assay [9].

As to `CCOC(=O)NN1C(=O)C(=P(c2ccccc2)(c2ccccc2)c2ccccc2)C(C(=O)OCC)=C1C`, the TGI in [1], in assay [2], in [3], in assay [4], in [6] and in [7] was more than 100 µM each time. In addition, the TGI in assay [8], in assay [9] and in [10] was more than 100 µM throughout.

With `COc1ccc(-c2cncn2-c2ccc(OC)cc2)cc1`, the GI50 was 18.1 µM in [1]; 4.08 µM in assay [2]; 26.1 µM in [3]; 25.3 µM in assay [4]; 17.2 µM in assay [6]; 20.8 µM in [7]. In addition, the GI50 is 18.7 µM in [9] and 10.8 µM in assay [10]. Further, the TGI in assay [1] was 48.3 µM; in [2], 27.1 µM; in assay [3], more than 100 µM; in [4], more than 100 µM; in assay [6] it was 53.6 µM; in [7] it was 46.9 µM. In addition, the TGI came out at 62.5 µM in assay [9] and 36.9 µM in assay [10].

For the compound `COc1ccc(O)c(C#N)c1C#N`, the TGI in assay [1], in assay [2], in [3], in assay [4], in assay [6] and in [7] was more than 100 µM in each case. Besides, the TGI in assay [8], in assay [9] and in [10] was more than 100 µM throughout.

For `COc1cc(/C=C/C(=O)c2sc(Nc3ccccc3)nc2C)ccc1O`, the TGI in [1], in [2], in assay [3], in [4], in [5] and in assay [6] was more than 100 µM in each case. Moreover, the TGI in [8], in assay [9] and in assay [10] was more than 100 µM throughout.

In the case of `C=C(C)C(=O)O[C@H]1[C@H]2[C@H](OC(=O)[C@H]2C)[C@H](O)[C@@H](C)[C@@H]2C=CC(=O)[C@]21C`, the TGI was determined as 4.96 µM in assay [1]; 14.8 µM in assay [2]; 10.7 µM in [3]; 12.1 µM in assay [4]; 5.85 µM in assay [5]; 15.4 µM in assay [6]. Moreover, the TGI amounted to 38.5 µM in [7], 10.7 µM in assay [8] and 7 µM in assay [9].

Consider `CCC12CCCC(=O)N1C(CO)C(c1ccccc1)O2` (stereo not drawn), for which the TGI in assay [1], in assay [2], in assay [3], in assay [4], in assay [5] and in [8] was more than 100 µM each time. For the same compound, the TGI in assay [9] and in assay [10] was more than 100 µM throughout.

On to `CC1=C(O)C(=O)C2C(=O)C1C(C)C2c1ccc(Cl)cc1` (stereo not drawn), for which the TGI in [2], in assay [3], in assay [4], in assay [5], in [6] and in assay [7] was more than 100 µM throughout. Further, the TGI in [8], in assay [9] and in assay [10] was more than 100 µM throughout.

In the case of `O=C(CCl)N1c2ccccc2Sc2c1ccc1ccccc21`, the GI50 was 1.79 µM in [1]; 12.5 µM in assay [2]; 1.66 µM in assay [3]; 1.65 µM in assay [4]; 2.98 µM in assay [5]; 1.71 µM in assay [6]. The values for the GI50 in assay [7], in assay [8] and in [10] were 1.68 µM, 3.58 µM and 2.98 µM, respectively. Also, the TGI stood at 3.27 µM in assay [1]; 25.8 µM in [2]; 3.68 µM in assay [3]; 3.13 µM in [4]; 7.56 µM in assay [5]; 3.8 µM in [6]. The TGI in [7] was found to be 3.53 µM; in assay [8] it was 15.5 µM; in assay [10] it was 13 µM.

On to `CCOC(=O)C(=O)Nc1c(C)cccc1C`, for which the TGI in assay [1], in [2], in assay [3], in assay [4], in [5] and in assay [6] was more than 100 µM throughout. Further, the TGI in assay [7], in [8] and in assay [9] was more than 100 µM throughout.

Take `COc1ccc2c(c1)OC(N(C(C)=O)C(C)=O)=C(C#N)C2c1ccc(F)cc1` (stereo not drawn): the GI50 in [1] is 6.48 µM; in [2], 6.37 µM; in assay [3] it was 0.553 µM; in assay [4], 1.82 µM; in [5] it was 9.97 µM; in assay [6], 4.19 µM. The GI50 in [7] is 0.482 µM; in assay [8], 2.55 µM; in [9], 2.82 µM. Besides, the TGI was more than 100 µM in [1]; more than 100 µM in assay [2]; more than 100 µM in assay [3]; 54.8 µM in [4]; more than 100 µM in [5]; more than 100 µM in assay [6]. The TGI in assay [7] is more than 100 µM; in assay [8], 18 µM; in assay [9] it was more than 100 µM.

Turning to `COc1cc(Nc2nc(N[C@H]3CCCC[C@@H]3N)nc3cc[nH]c(=O)c23)cc(OC)c1`, the GI50 in [1] is 2.43 µM; in [2], 1.08 µM; in assay [3], 1.16 µM; in assay [4] it was 1.46 µM; in [5] it was 1.86 µM; in assay [6], 6.72 µM. Also, the GI50 in assay [7] was 0.379 µM; in [8], 0.391 µM; in assay [10] it was 2.47 µM. Further, the TGI turned out to be 16.9 µM in assay [1]; 12.2 µM in [2]; 2.97 µM in assay [3]; 5.31 µM in [4]; 6.44 µM in assay [5]; 21.5 µM in assay [6]. In addition, the values for the TGI in assay [7], in [8] and in assay [10] were 2.16 µM, 3.69 µM and 10.3 µM, respectively.

For `CCCCCCCCCCCCCCCC(=O)OCC1OC(n2c(O)c(N=NC(N)=S)c3ccc([N+](=O)[O-])cc32)C(OC(C)=O)C1OC(C)=O` (stereo not drawn), the TGI in assay [1], in [2], in [3], in assay [4], in [5] and in assay [7] was more than 100 µM throughout. Also, the TGI in [8], in assay [9] and in assay [10] was more than 100 µM each time.

The record behind these values is PubChem BioAssay (NCI).
